For the test, the system named is c-Myc. The test is described as follows: c-Myc immunofluorescence assay. In kind it is cell-based, human. The note with it: A549 cells, 24 hours treatment, anti-c-Myc immunofluorescence. A digest of the protocol: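 A549 cells grown 48 h, exposed 24 h to rising compound concentrations, then fixed, permeabilised and stained for c-Myc plus DAPI. Nuclear-segmented c-Myc fluorescence quantified by high-content imaging at 20×; EC50 from logistic dose–response fits.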

Counter-ions that a name gives are not always drawn.

As for `Cc1cccc(-c2cn3c(n2)sc2cc(C(=O)NCCCN4CCCC4)ccc23)c1` [compound 149, N-(3-(pyrrolidin-1-yl)propyl)-2-(m-tolyl)benzo[d]imidazo[2,1-b]thiazole-7-carboxamide], the “Myc Efficacy (−LogEC50)” value is “++ (++ ≥5 and <6)”. For `Cc1cccc(-c2cn3c(n2)sc2cc(C(=O)NCCCN4CCCC4=O)ccc23)c1` [compound 150, N-(3-(2-oxopyrrolidin-1-yl)propyl)-2-(m-tolyl)benzo[d]imidazo[2,1-b]thiazole-7-carboxamide], the “Myc Efficacy (−LogEC50)” value is “+ (+ >3 and <5)”. `Cc1cccc(-c2cn3c(n2)sc2cc(C(=O)N[C@H]4C[C@H](N5CCCCC5)C4)ccc23)c1` [compound 151, N-((1r,3r)-3-(piperidin-1-yl)cyclobutyl)-2-(m-tolyl)benzo[d]imidazo[2,1-b]thiazole-7-carboxamide]: the “Myc Efficacy (−LogEC50)” value was “+ (+ >3 and <5)”. Next, `CCN(CC)CCCNC(=O)c1ccc2c(c1)sc1nc(-c3cccc(OC)c3)cn12` [compound 152, N-(3-(diethylamino)propyl)-2-(3-methoxyphenyl)benzo[d] imidazo[2,1-b]thiazole-7-carboxamide]: “++ (++ ≥5 and <6)”; `CCN(CC)CCCNC(=O)c1ccc2c(c1)sc1nc(-c3cccc(-c4ccccc4)c3)cn12` [compound 153, 2-([1,1′-biphenyl]-3-yl)-N-(3-(diethylamino)propyl)benzo [d]imidazo[2,1-b]thiazole-7-carboxamide]: “+ (+ >3 and <5)”.

Turning to `CCN(CC)CCCNC(=O)c1ccc2c(c1)sc1nc(-c3ccc(C(=O)N(C)C)cc3)cn12` [compound 154, N-(3-(diethylamino)propyl)-2-(4-(dimethylcarbamoyl)phenyl) benzo[d]imidazo[2,1-b]thiazole-7-carboxamide formate], the “Myc Efficacy (−LogEC50)” value is “+ (+ >3 and <5)”.

For `CCNCCCNC(=O)c1ccc2c(c1)sc1nc(-c3cccc(C)c3)cn12` [compound 155], the “Myc Efficacy (−LogEC50)” value is “++ (++ ≥5 and <6)”.

As to `Cc1cccc(-c2cn3c(n2)sc2cc(C(=O)NCCC4CCCN4)ccc23)c1` (stereo not drawn) [compound 156, N-(2-(pyrrolidin-2-yl)ethyl)-2-(m-tolyl)benzo[d]imidazo[2,1-b]thiazole-7-carboxamide], the “Myc Efficacy (−LogEC50)” value is “++ (++ ≥5 and <6)”. For the molecule `CN[C@H]1C[C@@H](NC(=O)c2ccc3c(c2)sc2nc(-c4cccc(C)c4)cn23)C1` [compound 157, N-((1s,3s)-3-(methylamino)cyclobutyl)-2-(m-tolyl)benzo[d]imidazo[2,1-b]thiazole-7-carboxamide formate], the “Myc Efficacy (−LogEC50)” value is “++ (++ ≥5 and <6)”. For `CN[C@H]1C[C@H](NC(=O)c2ccc3c(c2)sc2nc(-c4cccc(C)c4)cn23)C1` [compound 158, N-((1r,3r)-3-(methylamino)cyclobutyl)-2-(m-tolyl)benzo[d]imidazo[2,1-b]thiazole-7-carboxamide formate], the “Myc Efficacy (−LogEC50)” value was “++ (++ ≥5 and <6)”. The entry for `Cc1cccc(-c2cn3c(n2)sc2cc(C(=O)NCCC(=O)N4CCCC4)ccc23)c1` [compound 159, N-(3-oxo-3-(pyrrolidin-1-yl)propyl)-2-(m-tolyl)benzo[d]imidazo[2,1-b]thiazole-7-carboxamide] is “+ (+ >3 and <5)”; for `CCN(CC)CCCNC(=O)c1ccc2c(c1)sc1nc(-c3ccc(C#N)cc3)cn12` [compound 160, 2-(4-cyanophenyl)-N-(3-(diethylamino)propyl)benzo [d]imidazo[2,1-b]thiazole-7-carboxamide] it is “+ (+ >3 and <5)”; for `CCN(CC)CCCNC(=O)c1ccc2c(c1)sc1nc(-c3ccncc3)cn12` [compound 161, N-(3-(diethylamino)propyl)-2-(pyridin-4-yl)benzo[d]imidazo[2,1-b]thiazole-7-carboxamide] it is “+++ (+++ ≥6)”. The entry for `CCN(CC)CCCNC(=O)c1ccc2c(c1)sc1nc(N3CCOCC3)cn12` [compound 162, N-(3-(diethylamino)propyl)-2-morpholinobenzo[d]imidazo [2,1-b]thiazole-7-carboxamide] is “− (− ≤3)”; for `CCN(CC)CCCNC(=O)c1ccc2c(c1)sc1nc(-c3ccc(CN)cc3)cn12` [compound 163, 2-(4-(aminomethyl)phenyl)-N-(3-(diethylamino)propyl)benzo [d]imidazo[2,1-b]thiazole-7-carboxamide] it is “+++ (+++ ≥6)”; for `CCN(CC)CCCNC(=O)c1ccc2c(c1)sc1nc(-c3ccc(NC)cc3)cn12` [compound 164, N-(3-(diethylamino)propyl)-2-(4-(methylamino)phenyl)benzo [d]imidazo[2,1-b]thiazole-7-carboxamide] it is “+++ (+++ ≥6)”. As to `CCN(CC)CCCNC(=O)c1ccc2c(c1)sc1nc(-c3cncc(C)c3)cn12` [compound 165, N-(3-(diethylamino)propyl)-2-(5-methylpyridin-3-yl)benzo[d]imidazo[2,1-b]thiazole-7-carboxamide], the “Myc Efficacy (−LogEC50)” value was “+ (+ >3 and <5)”. Next, `CCN(CC)CCCNC(=O)c1ccc2c(c1)sc1nc(-c3ccc(C(=O)NC)cc3F)cn12` [compound 166, N-(3-(diethylamino)propyl)-2-(2-fluoro-4-(methylcarbamoyl)phenyl) benzo[d]imidazo[2,1-b]thiazole-7-carboxamide]: “+++ (+++ ≥6)”; `CCN(CC)CCCNC(=O)c1ccc2c(c1)sc1nc(-c3cccc(C(=O)NC)c3)cn12` [compound 167, N-(3-(diethylamino)propyl)-2-(3-(methylcarbamoyl)phenyl) benzo[d]imidazo[2,1-b]thiazole-7-carboxamide]: “+ (+ >3 and <5)”; `Cc1cccc(-c2cn3c(n2)sc2cc(NC(=O)C4CCNCC4)ccc23)c1` [compound 168, N-(2-(m-tolyl)benzo[d]imidazo[2,1-b]thiazol-7-yl)piperidine-4-carboxamide]: “++ (++ ≥5 and <6)”. Next, `CCN(CC)CCCNC(=O)c1ccc2c(c1)sc1nc(-c3cccc(C(C)C)c3)cn12` [compound 169, N-(3-(diethylamino)propyl)-2-(3-isopropylphenyl)benzo[d] imidazo[2,1-b]thiazole-7-carboxamide]: “++ (++ ≥5 and <6)”; `CCN(CC)CCCNC(=O)c1ccc2c(c1)sc1nc(-c3cccc(N4CCOCC4)c3)cn12` [compound 170, N-(3-(diethylamino)propyl)-2-(3-morpholinophenyl)benzo[d] imidazo[2,1-b]thiazole-7-carboxamide]: “++ (++ ≥5 and <6)”. Take `CCN(CC)CCCNC(=O)c1ccc2c(c1)sc1nc(-c3cccc(N4CCCC4)c3)cn12` [compound 171, N-(3-(diethylamino)propyl)-2-(3-(pyrrolidin-1-yl)phenyl)benzo[d]imidazo [2,1-b]thiazole-7-carboxamide]: the “Myc Efficacy (−LogEC50)” value is “++ (++ ≥5 and <6)”. For `CCN(CC)CCCNC(=O)c1ccc2c(c1)sc1nc(-c3ccc(C(=O)O)cc3)cn12` [compound 172, 4-(7-((3-(diethylamino)propyl)carbamoyl)benzo[d]imidazo [2,1-b]thiazol-2-yl)benzoic acid], the “Myc Efficacy (−LogEC50)” value was “− (− ≤3)”.
